Test: recombinant UMI read abundance after kanamycin selection (control-corrected) (log10(CPM+1)); higher = more efficient recombination; extreme values may be limits of the assay; sequences stand for … in AGTGCAGAGAAAATCGGCCAGTTTTCTCTGCCTGCAGTCCGCATGCCGTGGGACCCCTTGGGTTCTAACCTGTTGCCTAGATTTATGCAGCGGACTGCCTTTCTCCCAAAGTGATAAACCGG…AGGTTGGTTTCACT; site = the 11-nt donor
Outline: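 Sequencing read counts were converted to CPM, averaged over two replicates and scaled by control-derived factors. Results are given as log10(CPM+1). The reads covered the donor–target junction of recombinant UMIs from a pooled Escherichia coli screen of donor and donor-binding-loop pairs for the IS621 bridge recombinase.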
In the case of “CAAGCGCCATGGACCGGTTTTCCCGGTAATCCGTATTTGTG (site CAAGCGCCTTA)”, the “recombinant UMI read abundance (log10)” value is reported as 0.627. With “CGTTAGACATGGACCGGTTTTCCCGGTAATCCGTATTTGGG (site CGTTAGACTCT)” the “recombinant UMI read abundance (log10)” value was 0.512. With “CCATTTACATGGACCGGTTTTCCCGGTAATCCGTATTTGCT (site CCGTTTACTAG)” the “recombinant UMI read abundance (log10)” value was 0. In the case of “CGTGGACCATGGACCGGTTTTCCCGGTAATCCGTATTTGTT (site CGTGGACCTAA)”, the “recombinant UMI read abundance (log10)” value is reported as 0.0211. With “CGGAATCCATGGACCGGTTTTCCCGGTAATCCGTATTTGTT (site AGGAATCCTAG)” the “recombinant UMI read abundance (log10)” value was 0. For “TCAGTGTCATGGACCGGTTTTCCCGGTAATCCGTATTTGCT (site TCAGTGTCTAG)”, the “recombinant UMI read abundance (log10)” value was 2.58. In the case of “GGCACGTCATGGACCGGTTTTCCCGGTAATCCGTATTTGTT (site GGCACGTCTAA)”, the “recombinant UMI read abundance (log10)” value is reported as 0.595. For “TAGCTTGCATGGACCGGTTTTCCCGGTAATCCGTATTTGAA (site TAGCTAGCTTT)”, the “recombinant UMI read abundance (log10)” value was 0.0193. For “CGAGGACCATGGACCGGTTTTCCCGGTAATCCGTATTTGCG (site CGAGGACCTCA)”, the “recombinant UMI read abundance (log10)” value was 0.00306. With “GGCAATCCATGGACCGGTTTTCCCGGTAATCCGTATTTGAG (site GGCAATCCTTT)” the “recombinant UMI read abundance (log10)” value was 0.0105. For “GGATAGACATGGACCGGTTTTCCCGGTAATCCGTATTTGCG (site GGATAGACTGG)”, the “recombinant UMI read abundance (log10)” value was 1.52. In the case of “CGATCATCATGGACCGGTTTTCCCGGTAATCCGTATTTGCT (site CGATCATCTTG)”, the “recombinant UMI read abundance (log10)” value is reported as 0. With “GTAGGTGCATGGACCGGTTTTCCCGGTAATCCGTATTTGAC (site GTAGGTGCTGT)” the “recombinant UMI read abundance (log10)” value was 2.74. In the case of “CCGTTCACATGGACCGGTTTTCCCGGTAATCCGTATTTGCT (site CCGTTCACTAG)”, the “recombinant UMI read abundance (log10)” value is reported as 0.726. In the case of “AAGTCGACATGGACCGGTTTTCCCGGTAATCCGTATTTGGG (site AAGTCGACTCC)”, the “recombinant UMI read abundance (log10)” value is reported as 0.0303. In the case of “CCCCGCCCATGGACCGGTTTTCCCGGTAATCCGTATTTGTC (site CCCCGCCCTGA)”, the “recombinant UMI read abundance (log10)” value is reported as 0. With “CCGTTCACATGGACCGGTTTTCCCGGTAATCCGTATTTGCT (site CCGTTAACTAG)” the “recombinant UMI read abundance (log10)” value was 0. With “CCCCTCTCATGGACCGGTTTTCCCGGTAATCCGTATTTGGG (site CCCATCTCTCC)” the “recombinant UMI read abundance (log10)” value was 0. For “TGCTATACATGGACCGGTTTTCCCGGTAATCCGTATTTGAT (site TGCTATACTAT)”, the “recombinant UMI read abundance (log10)” value was 0.285. In the case of “GGATAGACATGGACCGGTTTTCCCGGTAATCCGTATTTGCA (site GGATAGACTAG)”, the “recombinant UMI read abundance (log10)” value is reported as 0.763. With “TAGCTTTCATGGACCGGTTTTCCCGGTAATCCGTATTTGGT (site TAGCATTCTAC)” the “recombinant UMI read abundance (log10)” value was 0.374. With “GTAGGCACATGGACCGGTTTTCCCGGTAATCCGTATTTGTA (site GTAGGCACTTA)” the “recombinant UMI read abundance (log10)” value was 1.29. With “ACCTATACATGGACCGGTTTTCCCGGTAATCCGTATTTGGG (site ACCTAAACTCC)” the “recombinant UMI read abundance (log10)” value was 0.00642. In the case of “CGATCATCATGGACCGGTTTTCCCGGTAATCCGTATTTGCT (site CGAGCATCTAG)”, the “recombinant UMI read abundance (log10)” value is reported as 0. With “CGATCATCATGGACCGGTTTTCCCGGTAATCCGTATTTGCT (site AGATCAGCTAG)” the “recombinant UMI read abundance (log10)” value was 0.00274. With “AAGCACCCATGGACCGGTTTTCCCGGTAATCCGTATTTGGG (site AAGCACCCTCC)” the “recombinant UMI read abundance (log10)” value was 0.0505. In the case of “AAAGACCCATGGACCGGTTTTCCCGGTAATCCGTATTTGGT (site AAAGACCCTAC)”, the “recombinant UMI read abundance (log10)” value is reported as 1.02. In the case of “GCTACTGCATGGACCGGTTTTCCCGGTAATCCGTATTTGCC (site GCTAATGCTGG)”, the “recombinant UMI read abundance (log10)” value is reported as 0. With “GACAAACCATGGACCGGTTTTCCCGGTAATCCGTATTTGAT (site GACAAACCTAT)” the “recombinant UMI read abundance (log10)” value was 0. In the case of “CCTGTACCATGGACCGGTTTTCCCGGTAATCCGTATTTGCG (site CCTGTACCTCG)”, the “recombinant UMI read abundance (log10)” value is reported as 0.0076. For “CGGTTCCCATGGACCGGTTTTCCCGGTAATCCGTATTTGTG (site AGGTTCCCTCA)”, the “recombinant UMI read abundance (log10)” value was 0.0113. In the case of “CGGGCATCATGGACCGGTTTTCCCGGTAATCCGTATTTGCT (site CGGTCATCTAG)”, the “recombinant UMI read abundance (log10)” value is reported as 0. For “CGATCCACATGGACCGGTTTTCCCGGTAATCCGTATTTGCT (site CGATCCACTAG)”, the “recombinant UMI read abundance (log10)” value was 2.75. For “GCGATAGCATGGACCGGTTTTCCCGGTAATCCGTATTTGTC (site GCGATAGCTGA)”, the “recombinant UMI read abundance (log10)” value was 2.34. For “CGATCATCATGGACCGGTTTTCCCGGTAATCCGTATTTGCT (site CGTTCGTCTAG)”, the “recombinant UMI read abundance (log10)” value was 0.0117. In the case of “TCGTATCCATGGACCGGTTTTCCCGGTAATCCGTATTTGAC (site TCGTATCCTGT)”, the “recombinant UMI read abundance (log10)” value is reported as 0. For “ATGAAGACATGGACCGGTTTTCCCGGTAATCCGTATTTGGA (site ATGAAGACTTC)”, the “recombinant UMI read abundance (log10)” value was 1.52. With “CGGAATCCATGGACCGGTTTTCCCGGTAATCCGTATTTGTT (site GGGAATCCTAA)” the “recombinant UMI read abundance (log10)” value was 0. In the case of “GTATCCACATGGACCGGTTTTCCCGGTAATCCGTATTTGTA (site GTATGCACTTA)”, the “recombinant UMI read abundance (log10)” value is reported as 0.019. In the case of “ATACTATCATGGACCGGTTTTCCCGGTAATCCGTATTTGCA (site ATACTATCTTG)”, the “recombinant UMI read abundance (log10)” value is reported as 2.84. With “CATCAGTCATGGACCGGTTTTCCCGGTAATCCGTATTTGGT (site CATCAGTCTAC)” the “recombinant UMI read abundance (log10)” value was 2.17. For “TCGACCGCATGGACCGGTTTTCCCGGTAATCCGTATTTGCG (site TCAACCGCTCG)”, the “recombinant UMI read abundance (log10)” value was 0.00755. In the case of “CAGTCAACATGGACCGGTTTTCCCGGTAATCCGTATTTGTG (site CAGTCAACTCA)”, the “recombinant UMI read abundance (log10)” value is reported as 0.0625. With “CACTTCTCATGGACCGGTTTTCCCGGTAATCCGTATTTGGG (site CTCTTCTCTCC)” the “recombinant UMI read abundance (log10)” value was 0. In the case of “CAAGCAACATGGACCGGTTTTCCCGGTAATCCGTATTTGCT (site CAAGCATCTAG)”, the “recombinant UMI read abundance (log10)” value is reported as 0.289. In the case of “ACCTAGACATGGACCGGTTTTCCCGGTAATCCGTATTTGTG (site ACCTAGACTCC)”, the “recombinant UMI read abundance (log10)” value is reported as 0.114. For “AAACGAACATGGACCGGTTTTCCCGGTAATCCGTATTTGTC (site AGACGAACTGA)”, the “recombinant UMI read abundance (log10)” value was 0. For “GCCACGCCATGGACCGGTTTTCCCGGTAATCCGTATTTGGA (site GCCACGCCTTG)”, the “recombinant UMI read abundance (log10)” value was 0. With “ACGTCTACATGGACCGGTTTTCCCGGTAATCCGTATTTGTG (site ACGTCTACTCA)” the “recombinant UMI read abundance (log10)” value was 0.512. With “TGCTTGGCATGGACCGGTTTTCCCGGTAATCCGTATTTGGT (site TGCTGGGCTAC)” the “recombinant UMI read abundance (log10)” value was 0.155. For “TTTGTTCCATGGACCGGTTTTCCCGGTAATCCGTATTTGGT (site ATTGTTCCTAC)”, the “recombinant UMI read abundance (log10)” value was 0.0334. In the case of “TAATGAGCATGGACCGGTTTTCCCGGTAATCCGTATTTGGG (site TAATGACCTCC)”, the “recombinant UMI read abundance (log10)” value is reported as 0.00784. In the case of “CGGAATCCATGGACCGGTTTTCCCGGTAATCCGTATTTGTT (site CGCAATGCTAA)”, the “recombinant UMI read abundance (log10)” value is reported as 0.00802. For “GGCTAGACATGGACCGGTTTTCCCGGTAATCCGTATTTGTG (site GGCTAGACTCA)”, the “recombinant UMI read abundance (log10)” value was 0.659. With “GCGAAATCATGGACCGGTTTTCCCGGTAATCCGTATTTGCT (site GCGAAAGCTAG)” the “recombinant UMI read abundance (log10)” value was 0. For “TACATGACATGGACCGGTTTTCCCGGTAATCCGTATTTGCT (site TACGTGACTAG)”, the “recombinant UMI read abundance (log10)” value was 0.566. For “GGGACAACATGGACCGGTTTTCCCGGTAATCCGTATTTGTG (site GGGACAACTCA)”, the “recombinant UMI read abundance (log10)” value was 0.439.
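Further: IS621 bridge recombinase in Escherichia coli cells against a fixed T5 target plasmid.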
